Earlier results in patent US20040018954A1, “Composition of menthol and menthyl lactate, its preparation method and its applications as a cooling agent” (priority 2002, published 2004).

Conditions: manufacturer's product literature

solubility: oil soluble
stable in the pH range: 4-8
SMILES: CC1CCC(C(C)C)C(OC(=O)C(C)O)C1 (centres unmarked) [Frescolat ML, menthyl lactate]
